Measurements taken from ChEMBL document CHEMBL3120135, “Inhibition of glutamate racemase by substrate-product analogues” (Bioorg Med Chem Lett, 2014).
Blank lines part the entries; values can stand above or below the compound they belong to.

Tests used:
[1] = Partial noncompetitive inhibition of Fusobacterium nucleatum recombinant N-terminal hexahistidine-tagged glutamate racemase expressed in Escherichia coli BL21 (DE3) using L-glutamate as substrate by Michaelis-Menten plot analysis
[2] = Inhibition of Fusobacterium nucleatum recombinant N-terminal hexahistidine-tagged glutamate racemase expressed in Escherichia coli BL21 (DE3) using L-glutamate as substrate by circular dichroism based assay
[3] = (§1) Mixed-type inhibition of Fusobacterium nucleatum recombinant N-terminal hexahistidine-tagged glutamate racemase expressed in Escherichia coli BL21 (DE3) using L-glutamate as substrate by Michaelis-Menten plot analysis
[4] = system: Fusobacterium nucleatum; test: as §1
[5] = system: Fusobacterium nucleatum; test: Inhibition of Fusobacterium nucleatum recombinant N-terminal hexahistidine-tagged glutamate racemase expressed in Escherichia coli BL21 (DE3) using L-glutamate as substrate at 40 mM by circular dichroism based assay
[6] = Noncompetitive inhibition of Bacillus subtilis glutamate racemase
[7] = Inhibition of Bacillus subtilis glutamate racemase
[8] = system: Fusobacterium nucleatum; test: Inhibition of Fusobacterium nucleatum recombinant N-terminal hexahistidine-tagged glutamate racemase expressed in Escherichia coli BL21 (DE3) using L-glutamate as substrate at 64 mM by circular dichroism based assay
[9] = system: Fusobacterium nucleatum; test: Inhibition of Fusobacterium nucleatum recombinant N-terminal hexahistidine-tagged glutamate racemase expressed in Escherichia coli BL21 (DE3) using L-glutamate as substrate at 50 mM by circular dichroism based assay

SMILES: NC1(C(=O)O)CCP(=O)(O)CC1 (stereo not drawn)
Ki [1]: 3.1 mM
IC50 [2]: 24.1 mM

alphaKi [4]: 28 mM
IC50 [2]: 21.2 mM
SMILES: O=C1CCS(=O)(=O)CC1
Ki [3]: 18.4 mM

inhibition [5]: 30%
IC50 [2]: 215 mM
SMILES: NC1(C(=O)O)CCS(=O)(=O)CC1

SMILES: O=C1CCP(=O)(O)CC1
IC50 [2]: 47.7 mM

Ki [6]: 0.092 mM
Ki [7]: 2.7 mM
SMILES: O=C(O)c1cccc(C(=O)O)n1 [DIPICOLINIC ACID]

SMILES: NC(CCP(=O)(O)O)C(=O)O (racemic)
inhibition [8]: 15%

SMILES: O=C(O)CCP(=O)(O)CCC(=O)O
inhibition [9]: 40%
IC50 [2]: 60.4 mM
